Assay results as given in ChEMBL document CHEMBL3286257, “Development of second generation EP2 antagonists with high selectivity” (Eur J Med Chem, 2014).

Experiments:
[1] = test system: C6; assay: Cytotoxicity against rat C6 cells; type: cell-based; details: c6
[2] = target: Prostaglandin E2 receptor EP2 subtype (Homo sapiens) (UniProt P43116); assay: Antagonist activity at EP2 receptor (unknown origin) expressed in rat C6 cells assessed as inhibition of PGE2-induced response; type: cell-based
[3] = Metabolic stability of the compound in human liver microsomes assessed as compound remaining at 10 uM after 15 mins; type: ADME; details: read-out: Stability
[4] = Aqueous solubility of the compound by nephelometry method; type: physicochemical; details: buffer
[5] = Metabolic stability of the compound in human liver microsomes assessed as compound remaining at 10 uM after 30 mins; type: ADME; details: read-out: Stability
[6] = Metabolic stability of the compound in mouse liver microsomes assessed as compound remaining at 10 uM after 30 mins; type: ADME; details: read-out: Stability
[7] = Metabolic stability of the compound in mouse liver microsomes assessed as compound remaining at 10 uM after 60 mins; type: ADME; details: read-out: Stability
[8] = target: Prostaglandin E2 receptor EP4 subtype (Homo sapiens) (UniProt P35408); assay: Antagonist activity at EP4 receptor (unknown origin) expressed in rat C6 cells assessed as inhibition of PGE2-induced response; type: cell-based
[9] = Metabolic stability of the compound in human liver microsomes assessed as compound remaining at 10 uM after 60 mins; type: ADME; details: read-out: Stability
[10] = target: T1, Prostaglandin D2 receptor (Homo sapiens) (UniProt Q13258); assay: Antagonist activity at DP1 receptor (unknown origin) expressed in rat C6 cells by TR-FRET assay; type: cell-based
T1 sequence (whole entry): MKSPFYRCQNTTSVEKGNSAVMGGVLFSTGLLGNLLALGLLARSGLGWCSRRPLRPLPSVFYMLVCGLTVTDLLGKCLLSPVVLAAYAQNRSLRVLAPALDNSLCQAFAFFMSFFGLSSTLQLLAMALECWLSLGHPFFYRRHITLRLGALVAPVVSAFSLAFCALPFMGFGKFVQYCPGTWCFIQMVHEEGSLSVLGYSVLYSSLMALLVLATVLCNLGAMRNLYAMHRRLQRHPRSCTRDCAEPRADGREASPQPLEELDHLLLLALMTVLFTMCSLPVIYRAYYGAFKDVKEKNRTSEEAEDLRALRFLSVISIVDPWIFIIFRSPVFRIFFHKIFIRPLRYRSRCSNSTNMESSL

[11] = Metabolic stability of the compound in mouse liver microsomes assessed as compound remaining at 10 uM after 15 mins; type: ADME; details: read-out: Stability
[12] = target: Prostacyclin receptor (Homo sapiens) (UniProt P43119); assay: Antagonist activity at IP receptor (unknown origin) expressed in rat C6 cells by TR-FRET assay; type: cell-based
[13] = species on record: Homo sapiens; assay: Selectivity index, ratio of KB for IP receptor (unknown origin) to KB for EP2 receptor (unknown origin)
[14] = species on record: Homo sapiens; assay: Selectivity index, ratio of KB for DP1 receptor (unknown origin) to KB for EP2 receptor (unknown origin)
[15] = test system: EP2 receptor; assay: Therapeutic index, ratio of CC50 for rat C6 cells to KB for EP2 receptor (unknown origin); type: cell-based; details: read-out: TI
[16] = species on record: Homo sapiens; assay: Selectivity index, ratio of KB for EP4 receptor (unknown origin) to KB for EP2 receptor (unknown origin)

Prostacyclin receptor (Homo sapiens), sequence (P43119 whole entry): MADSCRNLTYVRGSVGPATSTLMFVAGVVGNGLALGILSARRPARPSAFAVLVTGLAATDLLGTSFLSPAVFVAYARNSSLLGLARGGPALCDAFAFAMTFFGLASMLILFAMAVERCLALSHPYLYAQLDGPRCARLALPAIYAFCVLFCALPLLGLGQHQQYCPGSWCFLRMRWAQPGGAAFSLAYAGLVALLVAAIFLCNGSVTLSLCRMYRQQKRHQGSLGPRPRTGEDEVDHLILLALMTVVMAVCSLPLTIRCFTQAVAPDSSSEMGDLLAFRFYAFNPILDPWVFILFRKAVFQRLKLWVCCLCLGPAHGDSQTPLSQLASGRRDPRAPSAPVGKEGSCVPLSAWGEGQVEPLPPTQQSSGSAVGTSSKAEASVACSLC
Prostaglandin E2 receptor EP2 subtype (Homo sapiens), sequence (P43116 whole entry): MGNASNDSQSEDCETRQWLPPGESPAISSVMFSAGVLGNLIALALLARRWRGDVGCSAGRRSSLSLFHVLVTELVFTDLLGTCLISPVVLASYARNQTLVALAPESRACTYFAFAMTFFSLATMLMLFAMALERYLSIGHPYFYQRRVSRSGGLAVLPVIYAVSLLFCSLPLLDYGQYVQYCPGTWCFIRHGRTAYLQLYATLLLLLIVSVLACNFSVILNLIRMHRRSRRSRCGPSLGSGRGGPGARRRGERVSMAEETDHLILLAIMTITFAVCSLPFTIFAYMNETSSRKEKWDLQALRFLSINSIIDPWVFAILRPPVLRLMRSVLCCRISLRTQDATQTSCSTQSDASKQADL
Prostaglandin E2 receptor EP4 subtype (Homo sapiens), sequence (P35408 whole entry): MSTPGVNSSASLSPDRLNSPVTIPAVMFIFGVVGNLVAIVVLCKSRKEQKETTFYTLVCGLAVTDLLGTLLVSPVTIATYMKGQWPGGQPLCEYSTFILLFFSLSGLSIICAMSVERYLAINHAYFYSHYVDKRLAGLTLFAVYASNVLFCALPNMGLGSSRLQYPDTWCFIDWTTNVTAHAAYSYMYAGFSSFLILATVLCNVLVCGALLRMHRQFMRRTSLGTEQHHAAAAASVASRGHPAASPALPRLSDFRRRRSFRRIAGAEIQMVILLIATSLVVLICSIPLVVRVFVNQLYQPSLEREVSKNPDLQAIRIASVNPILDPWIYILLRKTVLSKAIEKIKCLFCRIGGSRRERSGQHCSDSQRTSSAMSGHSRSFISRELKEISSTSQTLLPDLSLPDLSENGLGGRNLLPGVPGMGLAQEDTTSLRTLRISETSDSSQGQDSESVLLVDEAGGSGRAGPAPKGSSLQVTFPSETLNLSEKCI

Kb [2] [nM]	Structure (SMILES)	also measured
9.8	Cc1cc2ccccc2n1CCNC(=O)c1ccc(N(C)C)cc1	CC50 [1]: 310000 nM; remaining at […], 10 µM [3]: 27%; solubility kinetic [4]: < 25 µM; remaining at 0.5 h, 10 µM [5]: 7%; remaining at 0.5 h, 10 µM [6]: < 1%; remaining at 1 h, 10 µM [7]: < 1%; Kb [8]: 51000 nM; remaining at 1 h, 10 µM [9]: < 1%; Kb [10]: 6430 nM; remaining at […], 10 µM [11]: < 1%; Kb [12]: 4700 nM
97	CC(=O)Nc1ccc(C(=O)NCCn2c(C)cc3ccccc32)cc1	–
150	Cc1cc2ccccc2n1CCNC(=O)c1ccc(C(N)=O)cc1	–
> 1000	Cc1cc2ccccc2n1CCNC(=O)c1ccc(NC(=N)N)cc1	–
> 1000	Cc1cc2ccccc2n1CCNC(=O)c1ccc(C(=O)N(C)C)cc1	–
690	Cc1cc2ccccc2n1CCNC(=O)c1ccc(CN)cc1	–
150	CC(=O)Oc1ccc(C(=O)NCCn2c(C)cc3ccccc32)cc1	–
530	CC(=O)Nc1ccc(C(=O)NCCn2c(C)cc3ccccc32)cc1F	–
1220	Cc1cc2ccccc2n1CCNC(=O)c1ccc(CCN)cc1	–
64	Cc1cc2ccccc2n1CCNC(=O)c1ccc(N2CCN(C)CC2)cc1	–
51	Cc1cc2ccccc2n1CCNC(=O)c1ccc(NC(=O)c2ccccc2F)cc1	–
84	Cc1cc2ccccc2n1CCNC(=O)c1ccc(CNC(=O)OC(C)(C)C)cc1	–
486	Cc1cc2ccccc2n1CCNC(=O)c1ccc(S(N)(=O)=O)cc1	–
30.3	Cc1cc2ccccc2n1CCNC(=O)c1ccc(N2CCC(C)CC2)cc1	–
> 1000	Cc1cc2ccccc2n1CCNC(=O)c1ccc(O)cc1	–
210	Cc1cc2ccccc2n1CCNC(=O)c1ccc(N)cc1	–
50.2	CC(=O)N1CCN(c2ccc(C(=O)NCCn3c(C)cc4ccccc43)cc2)CC1	–
800	CCN(CC)C(=O)c1ccc(C(=O)NCCn2c(C)cc3ccccc32)cc1	–
15.5	CCNc1ccc(C(=O)NCCn2c(C)cc3ccccc32)cc1	–
> 1000	CCN(CC)c1ccc(C(=O)NCCCn2c(C)cc3ccccc32)cc1	–
140	Cc1cc2ccccc2n1CCNC(=O)c1ccc(C#N)cc1	–
42.2	Cc1cc2ccccc2n1CCNC(=O)c1ccc(-n2cnnn2)cc1	remaining at […], 10 µM [3]: 75%; solubility kinetic [4]: < 25 µM; remaining at 0.5 h, 10 µM [5]: 54%; remaining at 0.5 h, 10 µM [6]: 26%; remaining at 1 h, 10 µM [7]: 7.5%; remaining at 1 h, 10 µM [9]: 26%; remaining at […], 10 µM [11]: 50%
32.2	Cc1cc2ccccc2n1CCNC(=O)c1ccc(-n2nn[nH]c2=S)cc1	–
75.6	COc1ccc(C(=O)NCCn2c(C)cc3ccccc32)cc1	–
100	Cc1cc2ccccc2n1CCNC(=O)c1ccc(C(=O)OC(C)(C)C)cc1	–

The remaining lines, values behind:

Structure (SMILES)	Kb [2] [nM]	also measured
CC(=O)Nc1ccc(C(=O)NCCc2c(C)[nH]c3ccccc23)cc1	138	–
Cc1cc2ccccc2n1CCNC(=O)c1ccc2c(c1)n(C)c(=O)n2C	20.9	Ratio [13]: 1200; CC50 [1]: 154000 nM; Ratio [14]: 300; Kb [8]: 36100 nM; Kb [10]: 6290 nM; selectivity ratio [15]: 7370; Ratio [16]: 1730; Kb [12]: 25200 nM
Cc1[nH]c2ccccc2c1CCNC(=O)c1ccc(N2CCCCC2)cc1	19.8	–
Cc1cc2ccccc2n1CCNC(=O)c1cccc(N2CCOCC2)c1	> 1000	–
Cc1cc2ccccc2n1CCNC(=O)c1ccc(N2CCN(C)CC2)c(F)c1	45	Ratio [13]: 1420; CC50 [1]: 300000 nM; Ratio [14]: 22; Kb [8]: 4760 nM; Kb [10]: 980 nM; selectivity ratio [15]: 6660; Ratio [16]: 106; Kb [12]: 64000 nM
Cc1cc2ccccc2n1CCNC(=O)c1cnc(N)nc1	> 1000	–
CCN(CC)c1ccc(C(=O)NCCn2cnc3ccccc32)cc1	> 1000	–
Cc1cc2ccccc2n1CCNC(=O)c1ccc(CN2CCN(C)CC2)cc1	> 1000	–
Cc1cc2cc(F)ccc2n1CCNC(=O)c1ccc(N2CCOCC2)cc1	14.9	–
Cc1cc2ccccc2n1CCNC(=O)c1cccc(N2CCN(C)CC2)c1	770	–
Cc1cc2cc(F)ccc2n1CCNC(=O)c1ccc(N2CCN(C)CC2)c(F)c1	62.2	–
O=C(NC1CCc2[nH]c3ccccc3c2C1)c1ccc(N2CCOCC2)cc1 (stereo unspecified)	> 1000	–
Cc1cc2ccccc2n1CCNC(=O)c1cccc(S(N)(=O)=O)c1	> 1000	–
Cc1[nH]c2ccccc2c1CCNC(=O)c1ccc(N2CCOCC2)cc1	–	CC50 [1]: 311000 nM; remaining at […], 10 µM [3]: 75%; solubility kinetic [4]: < 25 µM; remaining at 0.5 h, 10 µM [5]: 58%; remaining at 0.5 h, 10 µM [6]: 10%; remaining at 1 h, 10 µM [7]: 0.5%; Kb [8]: 75600 nM; remaining at 1 h, 10 µM [9]: 40%; Kb [10]: 7790 nM; remaining at […], 10 µM [11]: 37%; selectivity ratio [15]: 10900; Kb [12]: 85000 nM
Cc1cc2ccccc2n1CCNC(=O)c1cnc(Nc2ccccc2)nc1	1.6	remaining at […], 10 µM [3]: 88%; solubility kinetic [4]: < 25 µM; remaining at 0.5 h, 10 µM [5]: 67%; remaining at 0.5 h, 10 µM [6]: 59%; remaining at 1 h, 10 µM [7]: 35%; remaining at 1 h, 10 µM [9]: 50%; remaining at […], 10 µM [11]: 71%
CCNc1ccc(C(=O)NCCn2c(C)cc3ccccc32)cc1C(F)(F)F	20.2	–
Cc1cc2ccccc2n1CCNC(=O)c1cnc2ccc(F)cc2c1O	175	–
CCN(CC)C(=O)c1ccc(C(=O)NCCc2c(C)[nH]c3ccccc23)cc1	> 1000	–
Cc1cc2ccccc2n1CCNC(=O)c1ccc(C2CCCNC2)cc1 (stereo unspecified)	> 1000	–
Cc1cc2ccccc2n1CCNC(=O)c1ccc(OC2CCNCC2)cc1	> 1000	–
O=C(NCCn1c(C(F)(F)F)cc2ccccc21)c1ccc(N2CCOCC2)cc1	120	–
Cc1[nH]c2ccccc2c1CCNC(=O)c1ccc(N2CCN(C)CC2)cc1	135	–
CCN(CC)c1ccc(C(=O)NCCn2c(C(F)(F)F)cc3ccccc32)cc1	150	–
Cc1cc2ccccc2n1CCNC(=O)c1nc2cc(F)ccc2[nH]1	130	–
Cc1cc2ccccc2n1CCNC(=O)c1ccc(N(C)C)c(F)c1	18.1	–
Cc1cc2ccccc2n1CCNC(=O)c1ccc(N2CCCN(C)CC2)cc1	148	–
Cc1cc2ccccc2n1CCNC(=O)c1cccnc1N	520	–

Structure (SMILES)	Kb [2] [nM]	also measured
CCN(CC)c1ccc(C(=O)NCCn2c(C)nc3ccccc32)cc1	190	–
COc1ccc(C(=O)NCCn2c(C)cc3ccccc32)cc1F	86.8	–
CCOC(=O)C1CCN(c2ccc(C(=O)NCCn3c(C)cc4ccccc43)cc2)CC1	500	–
Cc1cc2ccccc2n1CCNC(=O)c1ccc(C#N)c(F)c1	140	–
CCN(CC)c1ccc(C(=O)NCCn2c(C)cc3ccccc32)cc1OC	61.2	–
Cc1cc2ccccc2n1CCNC(=O)c1ccc(C#N)cc1F	280	–
CCN(CC)c1ccc(C(=O)OCCn2c(C)cc3ccccc32)cc1	> 1000	–
Cc1cc2ccccc2n1CCNC(=O)c1ccc(CN2CCOCC2)cc1	970	–
Cc1cc2ccccc2n1CCNC(=O)c1ccc(C2CCCN(C(=O)OC(C)(C)C)C2)cc1 (stereo unspecified)	95	–
Cc1cc2ccccc2n1CCNC(=O)c1ccc2[nH]nnc2c1	87.5	–
Cc1cc2ccccc2n1CCNC(=O)C1CCC(=O)N1 (stereo unspecified)	> 1000	–
CCNc1ncc(C(=O)NCCn2c(C)cc3ccccc32)cn1	57.8	–
Cc1cc2ccccc2n1CCNC(=O)c1cnc(N2CCOCC2)nc1	76.5	–
Cc1cc2ccccc2n1C1CCCN(C(=O)c2ccc(N3CCOCC3)cc2)C1 (stereo unspecified)	> 1000	–
COc1ccc(C(=O)NCCn2c(C)cc3ccccc32)cc1OC	22.3	–
Cc1cc2ccccc2n1CCNC(=O)c1ccc(C2CCCCC2)cc1	120	–
CCNc1ncc(C(=O)NCCC2C(C)=Nc3ccccc32)cn1 (stereo unspecified)	155	–
Cc1[nH]c2ccccc2c1CCNC(=O)c1ccc(N(C)C)cc1	10.8	CC50 [1]: 320000 nM; remaining at […], 10 µM [3]: 34%; solubility kinetic [4]: < 25 µM; remaining at 0.5 h, 10 µM [5]: 17%; remaining at 0.5 h, 10 µM [6]: 0%; remaining at 1 h, 10 µM [7]: 0%; Kb [8]: 16400 nM; remaining at 1 h, 10 µM [9]: 4%; Kb [10]: 3610 nM; remaining at […], 10 µM [11]: < 1%; Kb [12]: 63100 nM
Cc1cc2ccccc2n1CCNC(=O)c1ccc(N2CCNCC2)cc1	410	–
CC1=Nc2ccccc2C1CCNC(=O)c1cnc(N2CCOCC2)nc1 (stereo unspecified)	280	–
Cc1[nH]c2ccccc2c1CCNC(=O)c1ccc(N2CCOCC2)c(F)c1	66	–
CCN(CC)c1ccc(C(=O)NCCn2c(C)cc3ccccc32)cc1C(F)(F)F	310	–
CCN(CC)c1ccc(C(=O)NCCn2c(C)cc3ccccc32)cc1F	4.6	–
Cc1cc2ccccc2n1CCNC(=O)C1CCC(c2ncccn2)CC1 (stereo unspecified)	380	–
COc1cc(C(=O)NCCn2c(C)cc3ccccc32)cc(OC)c1OC	> 1000	–
Cc1cc2ccccc2n1CCNC(=O)c1ccc2[nH]c(=S)[nH]c(=O)c2c1	84.1	–
